Measurements reported in ChEMBL document CHEMBL1212695, “An allosteric potentiator of M4 mAChR modulates hippocampal synaptic transmission” (Nat Chem Biol, 2008).
The source made the active and inactive calls. The rule behind the calls is not given here.

What was measured:
[1] = target: T1, Muscarinic acetylcholine receptor M4 (Rattus norvegicus) (UniProt P08485); assay: Agonist activity at muscarinic M4 receptor in Sprague-Dawley rat hippocampal CA1 pyramidal neuron assessed as reduction of inhibitory postsynaptic current at 0.5 uM by whole-cell electrophysiology relative to control; assay type: functional, tissue-based; conditions: Hippocampus
T1 sequence (whole entry): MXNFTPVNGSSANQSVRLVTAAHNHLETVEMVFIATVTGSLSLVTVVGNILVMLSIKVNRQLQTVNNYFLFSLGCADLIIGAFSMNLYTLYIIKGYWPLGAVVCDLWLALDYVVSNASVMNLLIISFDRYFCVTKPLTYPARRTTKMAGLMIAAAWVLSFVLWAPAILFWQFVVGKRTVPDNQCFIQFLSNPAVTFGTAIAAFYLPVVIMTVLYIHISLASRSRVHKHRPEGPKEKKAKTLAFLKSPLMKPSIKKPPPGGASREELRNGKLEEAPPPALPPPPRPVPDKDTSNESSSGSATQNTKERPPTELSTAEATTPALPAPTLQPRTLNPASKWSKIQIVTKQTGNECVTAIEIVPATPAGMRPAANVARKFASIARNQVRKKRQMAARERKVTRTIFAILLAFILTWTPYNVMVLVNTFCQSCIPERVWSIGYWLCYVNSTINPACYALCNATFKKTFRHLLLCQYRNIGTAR

[2] = Agonist activity at muscarinic receptor in M4 receptor knock out mouse hippocampal CA1 pyramidal neuron assessed as reduction of inhibitory postsynaptic current amplitude at 2 uM by whole-cell electrophysiology in presence of carbachol relative to control; assay type: functional; conditions: Hippocampus
[3] = target: T2, Muscarinic acetylcholine receptor M5 (Rattus norvegicus) (UniProt P08911); assay: Agonist activity at rat recombinant muscarinic M5 receptor expressed in CHO cells assessed as induction of calcium mobilization at 10 uM after 1 hr by fluorescence assay; assay type: functional, cell-based
T2 sequence (whole entry): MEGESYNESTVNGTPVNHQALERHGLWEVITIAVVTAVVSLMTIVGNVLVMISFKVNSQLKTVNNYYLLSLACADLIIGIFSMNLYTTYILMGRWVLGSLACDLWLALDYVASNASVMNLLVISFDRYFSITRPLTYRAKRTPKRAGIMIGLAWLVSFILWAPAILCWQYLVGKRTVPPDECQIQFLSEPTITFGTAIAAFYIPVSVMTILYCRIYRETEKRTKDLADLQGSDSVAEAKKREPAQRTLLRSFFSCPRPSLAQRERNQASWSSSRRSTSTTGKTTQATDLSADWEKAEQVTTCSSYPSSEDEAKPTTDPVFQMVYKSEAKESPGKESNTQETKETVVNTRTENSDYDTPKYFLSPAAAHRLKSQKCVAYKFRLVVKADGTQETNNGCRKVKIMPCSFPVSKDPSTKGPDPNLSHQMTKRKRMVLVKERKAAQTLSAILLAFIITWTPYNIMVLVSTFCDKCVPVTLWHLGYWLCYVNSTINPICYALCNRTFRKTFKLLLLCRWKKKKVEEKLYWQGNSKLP

[4] = target: T2, Muscarinic acetylcholine receptor M5 (Rattus norvegicus); assay: Antagonist activity at rat recombinant muscarinic M5 receptor expressed in CHO cells assessed as calcium mobilization at 10 uM after 1 hr by fluorescence assay; assay type: functional, cell-based
[5] = target: T2, Muscarinic acetylcholine receptor M5 (Rattus norvegicus); assay: Displacement of [3H]NMS from rat recombinant muscarinic M5 receptor expressed in CHO cells after 2 hrs by microplate scintillation counting; assay type: cell-based
[6] = target: T1, Muscarinic acetylcholine receptor M4 (Rattus norvegicus); assay: Agonist activity at muscarinic M4 receptor in Sprague-Dawley rat hippocampal CA1 pyramidal neuron assessed as reversible inhibition of excitatory postsynaptic current by whole-cell electrophysiology; assay type: functional, tissue-based; conditions: Hippocampus
[7] = target: T1, Muscarinic acetylcholine receptor M4 (Rattus norvegicus); assay: Agonist activity at muscarinic M4 receptor in Sprague-Dawley rat hippocampal CA1 pyramidal neuron assessed as increase in carbachol-induced reduction in excitatory postsynaptic current at 10 uM by whole-cell electrophysiology relative to control; assay type: functional, tissue-based; parameters: scale not given: the % may be the effect or the level left; conditions: Hippocampus

Cc1cc(C)c2c(N)c(C(=O)NCc3ccc(Cl)cc3)sc2n1
inhibition [1]: 62.2% | inhibition at 2 µM [2]: 60.2% | Activity [3]: inactive | Activity [4]: inactive | Activity [5]: inactive | Activity [6]: Dose-dependent effect | Activity [7]: 42.7%
